Data as given in patent US7320992B2, “Substituted 2,3-dihydro-1h-isoindol-1-one derivatives and methods of use” (Amgen Inc., priority 2003, dated 2008).

The compounds below were run on VEGF-stimulated HUVEC proliferation (Human Umbilical Vein Endothelial cells) (assay: HUVEC Proliferation Assay). Details: 72 h incubation, CyQuant readout, read-out: inhibited VEGF-stimulated HUVEC proliferation at a level (IC50).
Assay type: cell-based
Method: Human Umbilical Vein Endothelial cells are purchased from Clonetics, Inc., as cryopreserved cells harvested from a pool of donors. These cells, at passage 1, are thawed and expanded in EBM-2 complete medium, until passage 2 or 3. The cells are trypsinized, washed in DMEM+10% FBS+antibiotics, and spun at 1000 rpm for 10 min. Prior to centrifugation of the cells, a small amount is collected for a cell count. After centrifugation, the medium is discarded, and the cells are resuspended in the appropriate volume of DMEM+10% FBS+antibiotics to achieve a concentration of 3×10^5 cells/mL. Another cell count is performed to confirm the cell concentration. The cells are diluted to 3×10^4 cells/mL in DMEM+10% FBS+antibiotics, and 100 μL of cells are added to a 96-well plate. The cells are incubated at 37° C. for 22 h.
Prior to the completion of the incubation period, compound dilutions are prepared. Five-point, five-fold serial dilutions are prepared in DMSO, at concentrations 400-fold greater than the final concentrations desired. 2.5 μL of each compound dilution are diluted further in a total of 1 mL DMEM+10% FBS+antibiotics (400× dilution). Medium containing 0.25% DMSO is also prepared for the 0 μM compound sample. At the 22 h timepoint, the medium is removed from the cells, and 100 μL of each compound dilution is added. The cells are incubated at 37° C. for 2-3 h.
During the compound pre-incubation period, the growth factors are diluted to the appropriate concentrations. Solutions of DMEM+10% FBS+antibiotics, containing either VEGF or bFGF at the following concentrations: 50, 10, 2, 0.4, 0.08, and 0 ng/mL are prepared. For the compound-treated cells, solutions of VEGF at 550 ng/mL or bFGF at 220 ng/mL for 50 ng/mL or 20 ng/mL final concentrations, respectively, are prepared since 10 μL of each will be added to the cells (110 μL final volume). At the appropriate time after adding the compounds, the growth factors are added. VEGF is added to one set of plates, while bFGF is added to another set of plates. For the growth factor control curves, the media on wells B4-G6 of plates 1 and 2 are replaced with media containing VEGF or bFGF at the varying concentrations (50-0 ng/mL). The cells are incubated at 37° C. for an additional 72 h.
At the completion of the 72 h incubation period, the medium is removed, and the cells are washed twice with PBS. After the second wash with PBS, the plates are tapped gently to remove excess PBS, and the cells are placed at −70° C. for at least 30 min. The cells are thawed and analyzed using the CyQuant fluorescent dye (Molecular Probes C-7026), following the manufacturer's recommendations. The plates are read on a Victor/Wallac 1420 workstation at 485 nm/530 nm (excitation/emission). Raw data are collected and analyzed using a 4-parameter fit equation in XLFit. IC50 values are then determined.
Work on `CC(C)(C)c1ccc(N2Cc3cccc(NCc4ccncc4)c3C2=O)cc1` [Example 1, 2-(4-(1,1-Dimethylethyl)phenyl)-7-((4-pyridinylmethyl)amino)-2,3-dihydro-1H-isoindol-1-one] yielded an IC50 of less than 500 nM. Compound `CC(=O)N1CC(C)(C)c2ccc(N3Cc4cccc(NCc5ccncc5)c4C3=O)cc21` [Example 16, 2-(1-acetyl-3,3-dimethyl-2,3-dihydro-1H-indol-6-yl)-7-[(pyridin-4-ylmethyl)-amino]-2,3-dihydro-isoindol-1-one] has an IC50 of less than 500 nM. Work on `CC1(C)CNc2cc(N3Cc4cccc(NCc5ccncc5)c4C3=O)ccc21` [Example 17] yielded an IC50 of less than 500 nM. `CC1(C)CNCc2cc(N3Cc4cccc(NCc5ccncc5)c4C3=O)ccc21` [Example 20] was tested, and the IC50 was less than 500 nM. `CC(C)(C)c1ccc(N2Cc3cccc(NCc4c[nH]c5ncccc45)c3C2=O)cc1` [Example 32, 2-(4-tert-butyl-phenyl)-7-[(1H-pyrrolo [2,3-b]pyridin-3-ylmethyl)-amino]-2,3-dihydro-isoindol-1-one] was tested, and the IC50 was less than 500 nM. `CC1(C)CNCc2cc(N3Cc4cccc(NCc5c[nH]c6ncccc56)c4C3=O)ccc21` [Example 35] showed an IC50 of less than 500 nM. Work on `CC(C)(C)c1cc(N2Cc3cccc(NCc4ccncc4)c3C2=O)[nH]n1` [Example 46, 2-(5-tert-butyl-2H-pyrazol-3-yl)-7-[(pyridin-4-ylmethyl)-amino]-2,3-dihydro-isoindol-1-one] yielded an IC50 of less than 500 nM. In the case of `CC1(C)CNCc2cc(N3Cc4cccc(NCc5ccc6ncccc6c5)c4C3=O)ccc21` [Example 64, 2-(4,4-Dimethyl-1,2,3,4-tetrahydro-isoquinolin-7-yl)-7-[(quinolin-6-ylmethyl)-amino]-2,3-dihydro-isoindol-1-one], the IC50 is reported as less than 500 nM. `CC(C)(C)c1ccc(N2Cc3ccnc(NCc4ccncc4)c3C2=O)cc1` [Example 80, 2-(4-tert-butyl-phenyl)-4-[(pyridin-4-ylmethyl)-amino]-1,2-dihydro-pyrrolo[3,4-c]pyridin-3-one] was tested, and the IC50 was less than 500 nM. `CC(C)(C)c1ccc(N2Cc3ccnc(NCc4ccnc(N)c4)c3C2=O)cc1` [Example 83, 4-[(2-amino-pyridin-4-ylmethyl)-amino]-2-(4-tert-butyl-phenyl)-1,2-dihydro-pyrrolo[3,4-c]pyridin-3-one] showed an IC50 of less than 500 nM.
